Earlier results on four compounds are cited in publication PMC8966651, “PKPD Modeling of the Inoculum Effect of Acinetobacter baumannii on Polymyxin B in vivo” (Frontiers in Pharmacology, 2022).

Data set [1] concerns E. coli. The following applies: cited from earlier work; for E. coli MICs at initial inoculum 10^7 CFU/ml compared to 10^5 CFU/ml: in vitro. The text has this:
The clinical relevance of in vitro IE has been questioned in previous studies ([Maglio et al., 2004]; [Maglio et al., 2005]; [Fantin et al., 2019]).

In data set [2] the test system is E. coli. The note with it: murine thigh infection model; ref de Araujo et al., 2011; cited from earlier work. The source says:
An innovative aspect of this study was the refinement of a PKPD model, based on the model developed after in vitro TK experiments conducted with A. baumannii and PMB ([Akrong et al., 2021]). […] The different growth behavior between in vitro and in vivo has been associated in literature ...

Data set [3] concerns A. baumannii. The note with it: initial inoculum of A. baumannii increased from 10^7 to 10^8 CFU/lung; ref Lin et al., 2018; cited from earlier work. The text has this: Yet the IE of A. baumannii on polymyxins in vivo remains to be investigated. […] But IE was only investigated on rare occasions in vivo, with antibiotics such as marbofloxacin ([Ferran et al., 2009]), piperacillin-tazobatam ([Harada et al., 2014]), ertapenem ([Maglio et al., 2005]), meropenem ([Mizunaga et al., 2005]) or colistin ([Fantin et al., 2019]) against various Gram-negative pathogens such as E. coli, K. pneumoniae ...

Where two headings read alike, the source gives them in different places.

Consider `CO/N=C(\C(=O)N[C@@H]1C(=O)N2C(C(=O)[O-])=C(C[N+]3(C)CCCC3)CS[C@H]12)c1csc(N)n1` [cefepime], for which the “E. coli MICs at initial inoculum 10^7 CFU/ml compared to 10^5 CFU/ml” value in data set [1] (ref Maglio et al., 2004) was “elevations of E. coli MICs”. Also, in data set [1] (neutropenic mouse thigh infection model, ref Maglio et al., 2004), the “inoculum effect (IE) in vivo” value was “no IE was observed in vivo”.

On to `CCN1CCN(C(=O)N[C@@H](C(=O)N[C@@H]2C(=O)N3[C@@H]2SC(C)(C)[C@@H]3C(=O)O)c2ccccc2)C(=O)C1=O` [piperacillin], for which the “maximum killing effect in vivo as compared to in vitro” value in data set [2] is reported as “two times smaller”.

On to `C[C@@H](O)[C@H]1C(=O)N2C(C(=O)O)=C(S[C@@H]3CN[C@H](C(=O)Nc4cccc(C(=O)O)c4)C3)[C@H](C)[C@H]12` [ertapenem], for which the “E. coli MICs at initial inoculum 10^7 CFU/ml compared to 10^5 CFU/ml” value in data set [1] (ref Maglio et al., 2005) is on record as “elevations of E. coli MICs”. The “inoculum effect (IE) in vivo” value in data set [1] (neutropenic mouse thigh infection model, ref Maglio et al., 2005) was “no IE was observed in vivo”.

In the case of colistin, in data set [3], the “efficacy of nebulized colistin with increasing inoculum” value is “decrease in the efficacy”. In data set [1] (mice infected with E. coli, ref Fantin et al., 2019), the “inoculum effect (IE) in vivo” value is listed as “observed an in vivo IE”.
